Earlier results in patent publication US11154586B2, “Treating sexual dysfunction” (Olive Therapeutics, LLC, priority 2016, dated 2021).

How the values were obtained:
[1] = intranasal, men or couples, single agent

CC[C@H](C)[C@@H]1NC(=O)[C@H](Cc2ccc(O)cc2)NC(=O)[C@@H](N)CSSC[C@@H](C(=O)N2CCC[C@H]2C(=O)N[C@@H](CC(C)C)C(=O)NCC(N)=O)NC(=O)[C@H](CC(N)=O)NC(=O)[C@H](CCC(N)=O)NC1=O [oxytocin]
Effect on sexual function, Case 1 (person, 2 hours after intranasal 16 IU, on progesterone only pill, repeated 2 days later): increased sexual desire, stronger uterine contractions during orgasm, and greater satisfaction
Effect on sexual function, Case 2 (person, intranasal, off-label for social anxiety, apparently also on lisdexamfetamine): broad spectrum enhancement of the patient's sexual function
Effect on anorgasmia, Case 3 (person, intranasal, earlier dopamine agonist and growth hormone): sustained restoration of their ability to achieve orgasm
Effect on sexual function, Case 1, third administration (same person, 2 weeks later, after switch to barrier method): did not produce the same sexual enhancement
Effect on biological measures of sexual functioning [1]: does not alter biological measures of sexual functioning
